Values joined by “and” are separate entries in the source; they are usually repeats but may differ in a detail not shown here. Identical values can stand only once.
Tests used:
[1] = Source text: For the case of abietic acid, calcium abietate (Dertocal), polymerised calcium abietate (MERIGRAL™) and the phenolic modified resins (RESENOL™ and GRANOLITE™), insoluble residues were removed by filtration and the numbers given in Table 1 relate to the soluble fraction after filtration.
[2] = Well-mixed bottle tests: dilution of treatment fluid with brine or oil; type: physicochemical; conditions: T=25° C.
Excerpt: In this case, the DPM solvent is 100% miscible with oil or brine.
Note that the oil and the treatment fluid are miscible.

[3] = Selective response in porous media, two feet long sandpacks (water zone / oil zone); conditions: for Brine permeability reduction corrected for treatment depth: water zone
Protocol: Candidate solvent-based treatment fluids were evaluated in porous media. […] Duplicate two feet long sandpacks were prepared using a specific blend of sand and silica flour.
Experiments were used to evaluate a treatment fluid containing 5 wt % calcium abietate pre-dissolved in a DPM/brine mixture.

[4] = remark: listed apart in the source
Protocol: Sandpack experiments were performed to evaluate the recovery of oil permeability after brine-induced precipitation.
The permeability ratio K(oil)/initial K(brine) is shown on the vertical y axis and this is plotted against the brine saturation (vol %) in the core.
The dark curve plotted with diamonds relates to the experiment wherein the starting point is a 10-ft pack saturated with brine (Sw=1, brine permeability Kw=960 mD). Oil is then flushed through it until the steady state is reached. During this operation, the water saturation in the pack decreases as water is mobilized and removed by the flow of oil. The oil permeability (Ko) is determined regularly during the process. The ratio K(oil)/initial K(brine) is then calculated and plotted against the water saturation. The oil permeability at steady state is 1300 mD, which gives Ko/Kwi=1.35 at Sw=29.5%.
The lighter curve plotted with triangles relates to the experiment wherein the 10-ft pack is saturated with brine (Sw=1, brine permeability Kw=800 mD). Half of it is then treated with 5 wt % resinate (calcium abietate, Dertocal) dissolved in solvent (DPM). Brine is then backflowed through the pack until the steady state is reached. […] Then, oil is flushed through the pack until the steady state is reached (Ko=1061 mD). Again, the ratio K(oil)/initial K(brine) is calculated and plotted against the water saturation. […]

[5] = Brine follow-up treatments, series of 3 treatments in 2-ft sand pack; conditions: 10 wt % in DPM
Protocol: The selective response to injections of treatment fluid and brine was carried out in porous media.
An experiment was performed in a 2-ft sand pack at ambient temperature and Sw=1. The experiment consisted in a series of 3 pack treatments (using a process of treatment fluid injection followed by brine injection), followed by brine backflow between each of the three treatments. The fluid used was 10 wt % resinate (calcium abietate, Dertocal) dissolved in DPM.
The volume of the treated zone is ⅔ of the pore volume (⅓ treatment fluid+⅓ brine). As shown, permeability reduced with each treatment.

[6] = Berea sandstone permeability experiments; conditions: 10 wt % in DPM, brine postflush, 20 psi/ft
Protocol: An experiment was performed in a 1 foot 250 mD Berea sandstone core at Sw=1, using a process of treatment fluid injection followed by follow-up brine injection.
Treatment fluid used: 10 wt % resinate (Calcium abietate, Dertocal) in solvent (DPM). The volume of the treated zone was ⅔ of the pore volume (⅓ treatment fluid+⅓ brine).
Brine permeability before treatment: 250 mD.
Brine permeability in the treated zone was reduced by 70%. The biggest damage (precipitation) appeared near the wellbore (region 1) where the reduction was 73%.
The biggest damage appeared near the wellbore (regions 1) where the reduction was 60%.

[7] = Abietate in pure diesel, Berea sandstone water and oil zones; conditions: 30 wt % dissolved in diesel, 50° C.
Protocol: The plot of FIG. 9 deals with the performance in water zones at 50° C. (Berea sandstone, k 100-150 mD; brine: 5 wt % NH4Cl in DI water) of the oil-based system (no miscibility with water/brine). The system contained 30 wt % calcium abietate dissolved in diesel.
The damage in the water zone was a function of the oil saturation prior to treatment. […] Since the brine and diesel-based treatment fluid are immiscible, it is unlikely that the precipitation of waxy solids accounts for the damage observed. Whilst it is possible that some minor precipitation may occur at interfaces, we suspect a viscous oil or viscous interface effect may be playing a role in reducing kbrine after backflow to steady-state.

Q: What does the source list for `CC(C)C1=CC2=CCC3[C@](C)(CCC[C@@]3(C)C(=O)O)C2CC1` (stereo partly drawn) [Abietic Acid, Abietic acid]?
A: Solubility, Brine wt % [1]: 0.01 wt %; Solubility, Solvent wt % (solvent chemistry) [1]: ≧30 (DPM^(3)), ≧30 (EB^(4)) wt %; Behaviour on dilution with brine: [brine] at precipitation ([2]; 5 wt % dissolved in pure DPM): [brine] = 33 vol %

Q: Which “Solubility, Brine wt %” value [1] does the source give for `CC(C)C1=CC2=CCC3C(C)(C(=O)O)CCCC3(C)C2CC1` (stereo not drawn) [Ca Abietate, Calcium abietate] here?
A: The value was 0.01 wt %.

Q: What about the “Behaviour on dilution with brine: [brine] at precipitation” value (from here on “Behaviour on dilution with brine”) ([2]; 5 wt % dissolved in pure DPM) of the same compound?
A: Its value is “[brine] = 23 vol %”.

Q: And the “Brine permeability reduction corrected for treatment depth” value ([3]; 5 wt % pre-dissolved in DPM/brine mixture)?
A: The value was 54%.

Q: And the “Brine permeability reduction corrected for treatment depth” value ([3]; 20 wt % in DPM, 20 psi/ft, 25° C.)?
A: The value was 65% and 69%.

Q: And the “Effect on permeability to oil” value ([3]; not told)?
A: Its value is “no effect on permeability to oil”.

Q: And the Brine permeability reduction ([4]; 5 wt % in DPM, half of 10-ft pack treated, brine backflow to steady state)?
A: The Brine permeability reduction was 25%.

Q: What about the “Oil permeability Ko at steady state after oil flush” value ([4]; not told) of the same compound?
A: Its value is 1061 mD.

Q: And the “% Reduction (cumulative)” value ([5]; after treatment I)?
A: The value was 51%.

Q: And the “% Reduction (cumulative)” value ([5]; after treatment II)?
A: Its value is 72%.

Q: And the “% Reduction (cumulative)” value ([5]; after treatment III)?
A: The value was 88%.

Q: What about the “Brine permeability reduction in the treated zone” value ([6]; T=60° C.) of the same compound?
A: The value was 33.5%.

Q: And the “Brine permeability reduction near the wellbore (regions 1)” value ([6]; T=60° C.)?
A: The value was 60%.

Q: And the “Brine permeability reduction in the treated zone” value ([6]; ambient temperature)?
A: The value was 70%.

Q: And the “Brine permeability reduction near the wellbore (region 1)” value ([6]; ambient temperature)?
A: The value was 73%.

Q: And the “% retained koil in oil zones” value [7]?
A: The value was 85-100%.

Q: And the “kbrine reduction in water zones” value ([7]; So(pre-treatment) range 0-25%, brine 5 wt % NH4Cl)?
A: Its value is ≥ 70%.

Q: Which results are given for `CC12CCC(CC1=O)C2(C)C` (stereo not drawn) [Camphor, camphor]?
A: Solubility, Brine wt % [1]: very; Solubility, Oil wt % [1]: ≧50.0^(7) wt %; Solubility, Solvent wt % (solvent chemistry) [1]: ≧50.0 (DPM^(3)) wt %

Q: For “calcium neo-decanoate [Ca neo-Decanoate (dry^B)]”, which “Behaviour on dilution with brine” value ([2]; 10 wt % dissolved in pure DPM) is on record?
A: The value was “[brine] = 67 vol %”.

Q: Which “Behaviour on dilution with brine” value ([2]; 10 wt % dissolved in pure DPM) does the source give for “calcium neo-tridecanoate [Ca neo-Tridecanoate (dry)]” here?
A: Its value is “[brine] = 70 vol %”.

Source: patent US7533723B2, “Well bore treatment fluid” (Schlumberger Technology Corporation, priority 2003, dated 2009)
